Experimental data: US12144795B2, “Cannabidiol compositions having modified cannabinoid profiles” (priority 2018, dated 2024)
In brackets after ≈: the same amount, converted by molar mass. Read-outs that look alike come from different tables or passages of the source.

Columns and labels:
[1] = Cannabidiol solubility in neat solvents and mixtures, isooctane solubility curve; format: physicochemical; details: for solubility: read-out: Solubility at RT
Description: Isooctane was selected as the final crystallization solvent due the low solubility and similar properties to heptane, i.e., low viscosity and boiling point relative to other higher hydrocarbons (Table 33). Based on the solubility and desire to maximize yield, an isooctane volume of 4.0 L/kg was selected as an appropriate crystallization concentration. Prior to crystallization, it was desired to fully dissolve the CBD in isooctane and filter the process stream. […] The isolation temperature of −20° C. was chosen to maximize the yield of the CBD from the final crystallization.

[2] = format: physicochemical
[3] = Anti-solvent crystallization, solid form by HT-XRPD of precipitates and evaporated mother liquors, before and after AAC; format: physicochemical
Description: For the anti-solvent crystallization experiments, clear solutions of CBD of approximately 60 mg/mL were prepared. Briefly, 1 volume of cannabidiol solution was added to 4 volumes of anti-solvent. If solids were precipitated, they were collected by centrifugation. The solid was analyzed by XRPD after being dried under ambient conditions and following drying under deep vacuum. The mother liquors were allowed to evaporate until completely dry and the remaining solids analyzed as well. All solids were analyzed by XRPD before and after exposure to accelerated aging conditions (40° C./75% RH) for two days.
Solids precipitated immediately from the combination of methanol with water. To facilitate precipitation, the samples were placed at 5° C. for 24 hours. […] When no XRPD record was generated, the field is defined as “Not Applicable” (N/A).

[4] = 1 month Accelerated 40° C./75% RH
[5] = 1.5 months Accelerated 40° C./75% RH
[6] = 2 months Accelerated 40° C./75% RH
[7] = 3 months Accelerated 40° C./75% RH
[8] = 5 months Accelerated 40° C./75% RH
[9] = 6 months Accelerated 40° C./75% RH
[10] = solvent 1,2-Dimethoxyethane, anti-solvent Decane
[11] = solvent Acetone, anti-solvent 2,2,4-Trimethylepentane
[12] = solvent Acetonitrile, anti-solvent Decane
[13] = solvent Ethanol, anti-solvent Decane
[14] = solvent Ethyl acetate, anti-solvent 2,2,4-Trimethylepentane
[15] = solvent Isopropyl acetate, anti-solvent 2,2,4-Trimethylepentane
[16] = solvent Toluene, anti-solvent Decane

C=C(C)[C@@H]1CCC(C)=C[C@H]1c1c(O)cc(CCCCC)cc1O [CBD, (1′R,2′R)-5′-methyl-4-pentyl-2′-(prop-1-en-2-yl)-1′,2′,3′,4′-tetrahydro-[1,1′-biphenyl]-2,6-diol]
solubility ([1]; 1,2-dimethoxyethane, organic solvent or mixture): > 100 mg/mL
solubility ([1]; 1,4-dioxane, organic solvent or mixture): > 100 mg/mL
solubility ([1]; 1-propanol, organic solvent or mixture): > 100 mg/mL
solubility ([1]; 2-butanone, organic solvent or mixture): > 100 mg/mL
solubility ([1]; 10/90 water/ethanol, organic solvent or mixture): > 100 mg/mL
solubility ([1]; 30/70 water/IPA, organic solvent or mixture): > 20 mg/mL
solubility ([1]; 30/70 water/ethanol, organic solvent or mixture): 20 to 70 mg/mL (≈ 63.6 to 223 mM)
Solubility at RT ([1]; 40/60 Water Methanol): oil
Solubility at RT ([1]; 45/65 Water Methanol): 3.4 mg/mL (≈ 10.8 mM)
Solubility at RT ([1]; 50/50 Water/Methanol): 0.3 mg/mL (≈ 0.954 mM)
solubility ([1]; 50/50 water/IPA, aqueous with cosolvent or surfactant or cyclodextrin): 10 to 20 mg/mL (≈ 31.8 to 63.6 mM)
solubility ([1]; 50/50 water/ethanol, aqueous with cosolvent or surfactant or cyclodextrin): < 5 mg/mL
solubility ([1]; ACN, organic solvent or mixture): > 100 mg/mL
solubility ([1]; CIP 100, aqueous with cosolvent or surfactant or cyclodextrin): < 1 mg/mL
solubility ([1]; CIP 200, aqueous with cosolvent or surfactant or cyclodextrin): < 1 mg/mL
solubility ([1]; DCM, organic solvent or mixture): > 100 mg/mL
solubility ([1]; EtOAc, organic solvent or mixture): > 100 mg/mL
solubility ([1]; EtOH, organic solvent or mixture): > 100 mg/mL
solubility ([1]; IPA, organic solvent or mixture): > 100 mg/mL
solubility ([1]; IPOAc, organic solvent or mixture): > 100 mg/mL
solubility ([1]; MTBE, organic solvent or mixture): > 100 mg/mL
solubility ([1]; MeOH, organic solvent or mixture): > 100 mg/mL
solubility ([1]; MeTHF saturated with water, organic solvent or mixture): > 100 mg/mL
solubility ([1]; MeTHF, organic solvent or mixture): > 100 mg/mL
solubility ([1]; NMPO, organic solvent or mixture): > 100 mg/mL
solubility ([1]; THF, organic solvent or mixture): > 100 mg/mL
solubility ([1]; acetone, organic solvent or mixture): > 100 mg/mL
solubility ([1]; anisole, organic solvent or mixture): > 100 mg/mL
solubility ([1]; chloroform, organic solvent or mixture): > 100 mg/mL
solubility ([1]; cumene, organic solvent or mixture): > 100 mg/mL
solubility ([1]; cyclohexane, organic solvent or mixture): > 100 mg/mL
solubility ([1]; diethyl ether, organic solvent or mixture): > 100 mg/mL
solubility ([1]; ethyl formate, organic solvent or mixture): > 100 mg/mL
solubility ([1]; heptane, organic solvent or mixture): 64.6 mg/mL (≈ 205 mM)
solubility ([1]; isobutanol, organic solvent or mixture): > 100 mg/mL
solubility ([1]; isooctane, organic solvent or mixture): 43.9 mg/mL (≈ 140 mM)
solubility ([1]; methylcyclohexane, organic solvent or mixture): > 100 mg/mL
solubility ([1]; n-decane, organic solvent or mixture): 36.8 mg/mL (≈ 117 mM)
solubility ([1]; n-hexane, organic solvent or mixture): > 100 mg/mL
solubility ([1]; p-xylene, organic solvent or mixture): > 100 mg/mL
solubility ([1]; silicone oil, oil or lipid, Silcone oil): 9.7 mg/mL (≈ 30.8 mM)
solubility ([1]; toluene, organic solvent or mixture): > 100 mg/mL
solubility ([1]; water): < 0.13 mg/mL
Chromatographic Purity: 4-Monobromo-cannabidiol ([2]; 0 month): <0.03%
Chromatographic Purity: Individual unspecified impurity ([2]; 0 month): <0.03%
Chromatographic Purity: Olivetol ([2]; 0 month): <0.03%
Chromatographic Purity: Sum of impurities ([2]; 0 month): <0.05%
Chromatographic Purity: 4-Monobromo-cannabidiol ([2]; 1 month 5° C.): <0.03%
Chromatographic Purity: Individual unspecified impurity ([2]; 1 month 5° C.): <0.03%
Chromatographic Purity: Olivetol ([2]; 1 month 5° C.): <0.03%
Chromatographic Purity: Sum of impurities ([2]; 1 month 5° C.): <0.05%
Chromatographic Purity: 4-Monobromo-cannabidiol ([2]; 1 month 25° C./60% RH): <0.03%
Chromatographic Purity: Individual unspecified impurity ([2]; 1 month 25° C./60% RH): <0.03%
Chromatographic Purity: Olivetol ([2]; 1 month 25° C./60% RH): <0.03%
Chromatographic Purity: Sum of impurities ([2]; 1 month 25° C./60% RH): <0.05%
Chromatographic Purity: 4-Monobromo-cannabidiol [2, 4]: <0.03%
Chromatographic Purity: Individual unspecified impurity [2, 4]: <0.03%
Chromatographic Purity: Olivetol [2, 4]: <0.03%
Chromatographic Purity: Sum of impurities [2, 4]: <0.05%
Chromatographic Purity: 4-Monobromo-cannabidiol ([2]; 1.5 months 25° C./60% RH): <0.03%
Chromatographic Purity: Individual unspecified impurity ([2]; 1.5 months 25° C./60% RH): <0.03%
Chromatographic Purity: Olivetol ([2]; 1.5 months 25° C./60% RH): <0.03%
Chromatographic Purity: Sum of impurities ([2]; 1.5 months 25° C./60% RH): <0.05%
Chromatographic Purity: 4-Monobromo-cannabidiol [2, 5]: <0.03%
Chromatographic Purity: Individual unspecified impurity [2, 5]: <0.03%
Chromatographic Purity: Olivetol [2, 5]: <0.03%
Chromatographic Purity: Sum of impurities [2, 5]: <0.05%
Chromatographic Purity: 4-Monobromo-cannabidiol [2, 6]: <0.03%
Chromatographic Purity: Individual unspecified impurity [2, 6]: <0.03%
Chromatographic Purity: Olivetol [2, 6]: <0.03%
Chromatographic Purity: Sum of impurities [2, 6]: <0.05%
Chromatographic Purity: 4-Monobromo-cannabidiol [2, 7]: <0.03%
Chromatographic Purity: Individual unspecified impurity [2, 7]: <0.03%
Chromatographic Purity: Olivetol [2, 7]: <0.03%
Chromatographic Purity: Sum of impurities [2, 7]: <0.05%
Chromatographic Purity: 4-Monobromo-cannabidiol [2, 8]: <0.03%
Chromatographic Purity: Individual unspecified impurity [2, 8]: <0.03%
Chromatographic Purity: Olivetol [2, 8]: <0.03%
Chromatographic Purity: Sum of impurities [2, 8]: <0.05%
Chromatographic Purity: 4-Monobromo-cannabidiol ([2]; 6 months 25° C./60% RH): <0.03%
Chromatographic Purity: Individual unspecified impurity ([2]; 6 months 25° C./60% RH): <0.03%
Chromatographic Purity: Olivetol ([2]; 6 months 25° C./60% RH): <0.03%
Chromatographic Purity: Sum of impurities ([2]; 6 months 25° C./60% RH): <0.05%
Chromatographic Purity: 4-Monobromo-cannabidiol [2, 9]: <0.03%
Chromatographic Purity: Individual unspecified impurity [2, 9]: <0.03%
Chromatographic Purity: Olivetol [2, 9]: <0.03%
Chromatographic Purity: Sum of impurities [2, 9]: <0.05%
Solid form by HT-XRPD Ambient After AAC ([3]; Dichloromethane / 2,2,4-Trimethylepentane, AS:S ratio 4:1): A low yield
AS:S ratio 4:1 Precipitation? [3, 10]: No
Form (evap. ML) [3, 10]: Oily
AS:S ratio 4:1 Precipitation? ([3]; solvent 1,2-Dimethoxyethane, anti-solvent Water): No
AS:S ratio 4:1 Precipitation? ([3]; solvent 1,4-Dioxane, anti-solvent 2,2,4-Trimethylepentane): No
AS:S ratio 4:1 Precipitation? ([3]; solvent 1,4-Dioxane, anti-solvent Water): No
AS:S ratio 4:1 Precipitation? ([3]; solvent 2-Butanone, anti-solvent Water): No
AS:S ratio 4:1 Precipitation? [3, 11]: No
Form (evap. ML) [3, 11]: Oily
AS:S ratio 4:1 Precipitation? [3, 12]: No
Form (evap. ML) [3, 12]: Oily
AS:S ratio 4:1 Precipitation? ([3]; solvent Dichloromethane, anti-solvent 2,2,4-Trimethylepentane): No
AS:S ratio 4:1 Precipitation? [3, 13]: No
Form (evap. ML) [3, 13]: Oily
AS:S ratio 4:1 Precipitation? [3, 14]: No
Form (evap. ML) [3, 14]: A low
Form (evap. ML) after AAC [3, 14]: A low
AS:S ratio 4:1 Precipitation? [3, 15]: No
Form (evap. ML) [3, 15]: Oily
AS:S ratio 4:1 Precipitation? ([3]; solvent Methanol, anti-solvent Water): Yes
AS:S ratio 4:1 Precipitation? ([3]; solvent Tetrahydrofuran, anti-solvent Decane): No
AS:S ratio 4:1 Precipitation? ([3]; solvent Tetrahydrofuran, anti-solvent Water): No
AS:S ratio 4:1 Precipitation? [3, 16]: No
Form (evap. ML) [3, 16]: Oily
